Data: US20250222120A1, “SYNTHESIS OF NOVEL SMALL MOLECULE CARM1 DEGRADERS, COMPOUNDS FORMED THEREBY, AND PHARMACEUTICAL COMPOSITIONS CONTAINING THEM” (Wisconsin Alumni Research Foundation, priority 2024, published 2025)
Peptide text beside a SMILES is read from it. * marks the point of attachment. Cbz = O=C(OCc1ccccc1)*

Legend:
CARM1 [1] = target: T1, CARM1 (Homo sapiens, UniProt Q86X55); assay: CARM1 degradation by western blot in MCF7 cells; format: cell-based; parameters: Cell lysates were collected and the CARM1 levels were detected by western blots; endogenous in cells; host or cells: MCF7; conditions: 24 h; for CARM1 degradation activity, alkyl-linker degraders: 0.5 and 1.0 μM; for CARM1 degradation activity: 0.5 μM
T1 sequence (Q86X55 1-608): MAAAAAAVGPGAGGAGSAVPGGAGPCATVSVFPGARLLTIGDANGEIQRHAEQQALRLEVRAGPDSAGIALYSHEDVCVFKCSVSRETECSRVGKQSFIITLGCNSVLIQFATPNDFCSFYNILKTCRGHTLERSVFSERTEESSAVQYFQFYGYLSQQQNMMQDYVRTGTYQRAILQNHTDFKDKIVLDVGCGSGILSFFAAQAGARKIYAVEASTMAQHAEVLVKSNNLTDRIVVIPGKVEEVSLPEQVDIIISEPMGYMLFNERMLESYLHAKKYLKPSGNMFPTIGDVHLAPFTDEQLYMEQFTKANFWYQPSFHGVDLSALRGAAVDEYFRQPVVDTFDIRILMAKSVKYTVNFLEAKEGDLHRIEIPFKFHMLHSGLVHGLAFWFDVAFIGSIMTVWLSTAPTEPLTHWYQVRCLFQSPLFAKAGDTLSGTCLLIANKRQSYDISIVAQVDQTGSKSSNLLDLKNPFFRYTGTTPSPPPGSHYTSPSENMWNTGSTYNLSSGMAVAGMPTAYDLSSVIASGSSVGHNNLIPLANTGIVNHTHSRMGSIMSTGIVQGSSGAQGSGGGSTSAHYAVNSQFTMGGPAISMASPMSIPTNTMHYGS
Procedure: Based on the structure of TPVC3, CARM1 degraders with stable and flexible alkyl linkages 2a-e were designed and synthesized. Degrader 2b bears the same linker length as TPVC3, while 2a has one less carbon. However, we also changed the hydrolytic labile C═N double bond, which is part of the acylhydrazone motif, in TPVC3 to a C—C bond in compound 2b. This change may influence the required optimal linker length. […] Western blot assays were performed to evaluate the CARM1 degradation activity of the compounds after treating MCF7 cells with these degraders at two concentrations (0.5 and 1.0 μM) for 24 h. […] It has one less carbon atom than 2a in terms of length. […] It has the same linker length as 2d.
The treatment dose and time were determined based on time-course and dose titration experiments (FIG. 4B-4C).
Western Blot Assay. Cells were harvested and washed with Dulbecco's phosphate-buffered saline (PBS), then lysed with 1×RIPA lysis buffer (50 mM Tris pH 7.5, 150 mM NaCl, 1% NP-40, 0.5% sodium deoxycholate, and 0.1% sodium dodecyl sulfate) supplemented with 1 mM phenylmethylsulfonyl fluoride, 10 μg/mL aprotinin, 1 μM leupeptin, and 10 μg/mL pepstatin on ice for 20 min. The supernatant was collected after spinning down at 15000 RPM at 4 degrees Celsius for 10 min. The concentration of whole lysates was quantified using a Bradford assay. 50-75 μg of cell lysates was boiled in 4× Laemmli Loading Dye and boiled at 100 degrees Celsius for 10 min. 25 μg were run in 8% SDS-PAGE gels and transferred to nitrocellulose membranes. Blots were blocked in 5% skim milk in PBST [PBS and 0.1% Tween 20] for 45 min, then incubated with primary antibodies at 4 degrees Celsius overnight. Blots were washed in PBST for 30 min, then incubated with horseradish peroxidase-linked secondary antibodies (Jackson ImmunoResearch) for 1 hr. Afterwards, blots were washed in PBST for 15-30 min, then treated with chemiluminescent ECL reagent and imaged with the ChemiDoc Imaging System (Bio-Rad) or Azure 600 (Azure Biosystems). Expression levels of the indicated proteins were probed by the following antibodies: anti-CARM1, anti-me-BAF155, anti-me-PABP1, anti-PABP1,^7 anti-BAF155 (D7F8S, Cell Signaling Technology), anti-PRMT1 (Bethyl), anti-PRMT6 (D-5, Santa Cruz Biotechnology), anti-β-Actin (ABclonal Technology, Sigma-Aldrich), anti-Hsp90 (H-114, Santa Cruz Biotechnology).

CARM1 [2] = target: T1, CARM1; assay: CARM1 degradation by western blot in MCF7 cells; format: cell-based; parameters: Cell lysates were collected and the CARM1 levels were detected by western blots; endogenous in cells; host or cells: MCF7; conditions: MCF7 cells, 0.5 μM 3b, 24 h; 7.5 μM MG132, 20 μM VH-032, 2 μM MLN4924, 10 μM TP-064

Effect of competitor/inhibitor on 3b-induced CARM1 degradation (CARM1 [2])	Structure (SMILES)	CARM1 degradation activity, alkyl-linker degraders (CARM1 [1])	also measured
–	CNCCN1CCC(c2cc(CN(C)C(=O)c3cccc(Oc4ccc(OCC(=O)NCc5ccc(OCCCC(=O)N[C@H](C(=O)N6C[C@H](O)C[C@H]6C(=O)N[C@@H](C)c6ccc(-c7scnc7C)cc6)C(C)(C)C)cc5)cc4)c3)ccn2)CC1 [Compound 2a, (2S,4R)-1-((S)-3,3-dimethyl-2-(4-(4-((2-(4-(3-(methyl((2-(1-(2-(methylamino)ethyl)piperidin-4-yl)pyridin-4-yl)methyl)carbamoyl)phenoxy)phenoxy)acetamido)methyl)phenoxy)butanamido)butanoyl)-4-hydroxy-N—((S)-1-(4-(4-methylthiazol-5-yl)phenyl)ethyl)pyrrolidine-2-carboxamide]	2d and 2e showed stronger CARM1 degradation activities than 2a, 2b, and 2c	–
–	CNCCN1CCC(c2cc(CN(C)C(=O)c3cccc(Oc4ccc(OCC(=O)NCCc5ccc(OCCCC(=O)N[C@H](C(=O)N6C[C@H](O)C[C@H]6C(=O)N[C@@H](C)c6ccc(-c7scnc7C)cc6)C(C)(C)C)cc5)cc4)c3)ccn2)CC1 [Compound 2b, (2S,4R)-1-((S)-3,3-dimethyl-2-(4-(4-(2-(2-(4-(3-(methyl((2-(1-(2-(methylamino)ethyl)piperidin-4-yl)pyridin-4-yl)methyl)carbamoyl)phenoxy)phenoxy)acetamido)ethyl)phenoxy)butanamido)butanoyl)-4-hydroxy-N—((S)-1-(4-(4-methylthiazol-5-yl)phenyl)ethyl)pyrrolidine-2-carboxamide]	2d and 2e showed stronger CARM1 degradation activities than 2a, 2b, and 2c	–
–	CNCCN1CCC(c2cc(CN(C)C(=O)c3cccc(Oc4ccc(OCC(=O)NCCc5ccc(OCCCCC(=O)N[C@H](C(=O)N6C[C@H](O)C[C@H]6C(=O)N[C@@H](C)c6ccc(-c7scnc7C)cc6)C(C)(C)C)cc5)cc4)c3)ccn2)CC1 [Compound 2c, (2S,4R)-1-((S)-3,3-dimethyl-2-(5-(4-(2-(2-(4-(3-(methyl((2-(1-(2-(methylamino)ethyl)piperidin-4-yl)pyridin-4-yl)methyl)carbamoyl)phenoxy)phenoxy)acetamido)ethyl)phenoxy)pentanamido)butanoyl)-4-hydroxy-N—((S)-1-(4-(4-methylthiazol-5-yl)phenyl)ethyl)pyrrolidine-2-carboxamide]	2d and 2e showed stronger CARM1 degradation activities than 2a, 2b, and 2c	–
–	CNCCN1CCC(c2cc(CN(C)C(=O)c3cccc(Oc4ccc(OCC(=O)NCCc5ccc(OCCCCCC(=O)N[C@H](C(=O)N6C[C@H](O)C[C@H]6C(=O)N[C@@H](C)c6ccc(-c7scnc7C)cc6)C(C)(C)C)cc5)cc4)c3)ccn2)CC1 [Compound 2d, (2S,4R)-1-((S)-3,3-dimethyl-2-(6-(4-(2-(2-(4-(3-(methyl((2-(1-(2-(methylamino)ethyl)piperidin-4-yl)pyridin-4-yl)methyl)carbamoyl)phenoxy)phenoxy)acetamido)ethyl)phenoxy)hexanamido)butanoyl)-4-hydroxy-N—((S)-1-(4-(4-methylthiazol-5-yl)phenyl)ethyl)pyrrolidine-2-carboxamide]	stronger CARM1 degradation activities	–
–	CNCCN1CCC(c2cc(CN(C)C(=O)c3cccc(Oc4ccc(OCC(=O)NCCc5ccc(OCCCCCCC(=O)N[C@H](C(=O)N6C[C@H](O)C[C@H]6C(=O)N[C@@H](C)c6ccc(-c7scnc7C)cc6)C(C)(C)C)cc5)cc4)c3)ccn2)CC1 [Compound 2e, (2S,4R)-1-((S)-3,3-dimethyl-2-(7-(4-(2-(2-(4-(3-(methyl((2-(1-(2-(methylamino)ethyl)piperidin-4-yl)pyridin-4-yl)methyl)carbamoyl)phenoxy)phenoxy)acetamido)ethyl)phenoxy)heptanamido)butanoyl)-4-hydroxy-N—((S)-1-(4-(4-methylthiazol-5-yl)phenyl)ethyl)pyrrolidine-2-carboxamide]	stronger CARM1 degradation activities	–
–	CNCCN1CCC(c2cc(CN(C)C(=O)c3cccc(Oc4ccc(C(=O)N5CCC(CN6CCC(CN7CCN(CC(=O)N[C@H](C(=O)N8C[C@H](O)C[C@H]8C(=O)N[C@@H](C)c8ccc(-c9scnc9C)cc8)C(C)(C)C)CC7)CC6)CC5)cc4)c3)ccn2)CC1 [Compound 3c, (2S,4R)-1-((S)-3,3-dimethyl-2-(2-(4-((1-((1-(4-(3-(methyl((2-(1-(2-(methylamino)ethyl)piperidin-4-yl)pyridin-4-yl)methyl)carbamoyl)phenoxy)benzoyl)piperidin-4-yl)methyl)piperidin-4-yl)methyl)piperazin-1-yl)acetamido)butanoyl)-4-hydroxy-N—((S)-1-(4-(4-methylthiazol-5-yl)phenyl)ethyl)pyrrolidine-2-carboxamide]	–	CARM1 degradation activity (CARM1 [1]): significantly lower CARM1 degradation activities
–	CNCCN1CCC(c2cc(CN(C)C(=O)c3cccc(Oc4ccc(CC(=O)N5CCC(CN6CCC(CN7CCN(CC(=O)N[C@H](C(=O)N8C[C@H](O)C[C@H]8C(=O)N[C@@H](C)c8ccc(-c9scnc9C)cc8)C(C)(C)C)CC7)CC6)CC5)cc4)c3)ccn2)CC1 [Compound 3d, (2S,4R)-1-((S)-3,3-dimethyl-2-(2-(4-((1-((1-(2-(4-(3-(methyl((2-(1-(2-(methylamino)ethyl)piperidin-4-yl)pyridin-4-yl)methyl)carbamoyl)phenoxy)phenyl)acetyl)piperidin-4-yl)methyl)piperidin-4-yl)methyl)piperazin-1-yl)acetamido)butanoyl)-4-hydroxy-N—((S)-1-(4-(4-methylthiazol-5-yl)phenyl)ethyl)pyrrolidine-2-carboxamide]	–	CARM1 degradation activity (CARM1 [1]): significantly lower CARM1 degradation activities
abrogated 3b-induced CARM1 degradation	NS(=O)(=O)OC[C@@H]1C[C@@H](n2ccc3c(N[C@H]4CCc5ccccc54)ncnc32)C[C@@H]1O [MLN492437, reference compound]	–	–
abrogated 3b-induced CARM1 degradation	CC(=O)N[C@H](C(=O)N1C[C@H](O)C[C@H]1C(=O)NCc1ccc(-c2scnc2C)cc1)C(C)(C)C [VH-032, reference compound]	–	–

Structure (SMILES)	Effect of competitor/inhibitor on 3b-induced CARM1 degradation (CARM1 [2])	CARM1 degradation activity, alkyl-linker degraders (CARM1 [1])	also measured
CC(C)C[C@@H](C=O)NC(=O)[C@H](CC(C)C)NC(=O)[C@H](CC(C)C)NC(=O)OCc1ccccc1 [MG132, reference compound] (Cbz-Leu-Leu-Leu-aldehyde)	abrogated 3b-induced CARM1 degradation	–	–
